Reference: publication PMC5560747, “Computational-experimental approach to drug-target interaction mapping: A case study on kinase inhibitors” (PLoS Computational Biology, 2017)

Columns and labels:
RPS6KB1 = target: T1, RPS6KB1 (Homo sapiens, UniProt P23443); test: ADP-Glo Kinase Assay, tivozanib off-target testing; format: biochemical; details: read-out: Experimental validation pIC50 (converted)
T1 construct: purchased SignalChem R21-10H-10
Description: The kinase inhibitors were dissolved to 1X Kinase Buffer with 5% DMSO by transferring 200nL of the buffer using ECHO525 Liquid handler (Labcyte). […] The dissolved kinases and 2.5X kinase buffer controls were transferred at 400nL using ECHO525. […] The 2.5X ATP/substrate working stocks were transferred at 400nL using ECHO525.
For the ADP detection, 1 μl ADP-Glo reagent was dispensed (Thermo Scientific Multidrop Combi nL). […] Next, 2 μl kinase detection reagent was dispensed with Thermo Scientific Multidrop Combi nL.
Kinase assay, kinase dilution and substrate buffers were as indicated by the manufacturer (Promega). The assays were performed in the same way as with the kinases from the Kinase Selectivity Profiling System + ADP-Glo Assay kits (see previous section). All the assays were done in three individual experiments, each having three replicates.
IC50 values from all the experiments were obtained with GraphPad Prism 7 (GraphPad Software, Inc. California, USA) using inhibitor vs. response—variable slope (four parameters) analysis. […] X-axis scale was set to log10.

FMS = system: FMS; design: method as in Gao et al. [42]; details: ref Gao et al. [42], cited from earlier work
LCK = LCK (Homo sapiens, UniProt P06239); design: method as in Gao et al. [42]; details: ref Gao et al. [42], cited from earlier work
Chain of LCK (P06239 whole entry): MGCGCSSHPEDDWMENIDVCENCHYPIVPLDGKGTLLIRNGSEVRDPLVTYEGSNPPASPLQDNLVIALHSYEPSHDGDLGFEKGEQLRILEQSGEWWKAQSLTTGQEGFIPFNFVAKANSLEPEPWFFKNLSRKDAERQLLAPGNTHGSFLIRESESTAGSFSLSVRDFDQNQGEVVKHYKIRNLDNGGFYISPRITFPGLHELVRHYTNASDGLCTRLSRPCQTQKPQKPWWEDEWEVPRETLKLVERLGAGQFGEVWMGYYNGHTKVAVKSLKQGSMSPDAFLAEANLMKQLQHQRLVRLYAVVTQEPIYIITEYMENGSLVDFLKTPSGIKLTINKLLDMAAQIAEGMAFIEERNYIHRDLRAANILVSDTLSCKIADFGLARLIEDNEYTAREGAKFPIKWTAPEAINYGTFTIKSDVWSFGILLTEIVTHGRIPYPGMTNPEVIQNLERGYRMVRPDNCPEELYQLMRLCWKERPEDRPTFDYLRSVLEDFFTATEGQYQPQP

AXL = target: T2, AXL (Homo sapiens, UniProt P30530); design: method as in Gao et al. [42]; details: ref Gao et al. [42], cited from earlier work
T2 sequence (P30530 26-894): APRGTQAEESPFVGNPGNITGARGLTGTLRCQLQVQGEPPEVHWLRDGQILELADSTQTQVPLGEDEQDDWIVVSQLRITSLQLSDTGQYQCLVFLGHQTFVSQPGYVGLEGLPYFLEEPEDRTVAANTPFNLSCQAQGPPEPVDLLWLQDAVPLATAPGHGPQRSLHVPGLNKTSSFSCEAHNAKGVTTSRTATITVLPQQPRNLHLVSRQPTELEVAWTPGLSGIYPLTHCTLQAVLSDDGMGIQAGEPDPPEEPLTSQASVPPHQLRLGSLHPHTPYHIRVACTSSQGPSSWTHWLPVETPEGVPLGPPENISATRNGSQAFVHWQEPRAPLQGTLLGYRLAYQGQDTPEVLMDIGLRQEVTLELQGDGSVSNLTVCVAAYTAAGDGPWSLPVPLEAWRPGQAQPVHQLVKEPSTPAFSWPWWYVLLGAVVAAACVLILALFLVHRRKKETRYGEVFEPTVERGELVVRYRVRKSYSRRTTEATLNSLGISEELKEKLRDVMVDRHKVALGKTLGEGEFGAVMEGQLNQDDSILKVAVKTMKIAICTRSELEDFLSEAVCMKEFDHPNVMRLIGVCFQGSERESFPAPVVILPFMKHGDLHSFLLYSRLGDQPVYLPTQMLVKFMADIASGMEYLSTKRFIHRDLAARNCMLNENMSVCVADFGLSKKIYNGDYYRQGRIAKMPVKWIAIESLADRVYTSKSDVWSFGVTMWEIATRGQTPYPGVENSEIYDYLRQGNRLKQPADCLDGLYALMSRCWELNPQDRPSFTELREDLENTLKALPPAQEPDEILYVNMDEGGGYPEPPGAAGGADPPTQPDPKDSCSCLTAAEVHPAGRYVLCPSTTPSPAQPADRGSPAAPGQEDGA

Aurora B = system: Aurora B; design: method as in Gao et al. [42]; details: ref Gao et al. [42], cited from earlier work
SYK = SYK (Homo sapiens, UniProt P43405); design: method as in Gao et al. [42]; details: ref Gao et al. [42]; cited from earlier work
MKNK2 (MNK2) = system: MKNK2 (MNK2); design: method as in Gao et al. [42]; details: ref Gao et al. [42], cited from earlier work
ITK = ITK (Homo sapiens, UniProt Q08881); design: method as in Gao et al. [42]; details: ref Gao et al. [42]; cited from earlier work
Chain of ITK (Q08881 whole entry): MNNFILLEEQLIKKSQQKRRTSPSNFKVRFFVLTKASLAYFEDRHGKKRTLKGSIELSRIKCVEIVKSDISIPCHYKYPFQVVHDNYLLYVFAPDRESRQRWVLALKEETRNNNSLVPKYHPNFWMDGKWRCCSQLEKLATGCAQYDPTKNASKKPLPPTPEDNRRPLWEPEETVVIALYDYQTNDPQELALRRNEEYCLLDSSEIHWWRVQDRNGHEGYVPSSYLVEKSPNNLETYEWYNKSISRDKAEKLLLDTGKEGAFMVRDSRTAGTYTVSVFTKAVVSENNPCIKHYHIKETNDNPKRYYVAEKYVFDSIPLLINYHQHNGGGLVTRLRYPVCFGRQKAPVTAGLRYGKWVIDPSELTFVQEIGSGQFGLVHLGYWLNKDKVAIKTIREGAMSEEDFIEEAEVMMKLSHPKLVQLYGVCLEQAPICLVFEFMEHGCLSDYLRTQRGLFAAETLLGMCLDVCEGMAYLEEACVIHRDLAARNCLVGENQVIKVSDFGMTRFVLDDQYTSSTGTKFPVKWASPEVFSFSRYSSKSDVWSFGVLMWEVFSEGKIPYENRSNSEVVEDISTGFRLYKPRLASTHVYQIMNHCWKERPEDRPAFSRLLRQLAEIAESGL

ROS1 = system: ROS1; design: method as in Gao et al. [42]; details: ref Gao et al. [42], cited from earlier work
FES = system: FES; design: method as in Gao et al. [42]; details: ref Gao et al. [42], cited from earlier work
MINK1 = system: MINK1; design: method as in Gao et al. [42]; details: ref Gao et al. [42], cited from earlier work
PKN2 = system: PKN2; design: method as in Gao et al. [42]; details: ref Gao et al. [42], cited from earlier work
JAK2 = system: JAK2; design: method as in Gao et al. [42]; details: ref Gao et al. [42], cited from earlier work
RSK2 = system: RSK2; design: method as in Gao et al. [42]; details: ref Gao et al. [42], cited from earlier work
CAMK2D = system: CAMK2D; design: method as in Gao et al. [42]; details: ref Gao et al. [42], cited from earlier work
BTK = BTK (Homo sapiens, UniProt Q06187); design: method as in Gao et al. [42]; details: ref Gao et al. [42], cited from earlier work
Chain of BTK (Q06187 whole entry): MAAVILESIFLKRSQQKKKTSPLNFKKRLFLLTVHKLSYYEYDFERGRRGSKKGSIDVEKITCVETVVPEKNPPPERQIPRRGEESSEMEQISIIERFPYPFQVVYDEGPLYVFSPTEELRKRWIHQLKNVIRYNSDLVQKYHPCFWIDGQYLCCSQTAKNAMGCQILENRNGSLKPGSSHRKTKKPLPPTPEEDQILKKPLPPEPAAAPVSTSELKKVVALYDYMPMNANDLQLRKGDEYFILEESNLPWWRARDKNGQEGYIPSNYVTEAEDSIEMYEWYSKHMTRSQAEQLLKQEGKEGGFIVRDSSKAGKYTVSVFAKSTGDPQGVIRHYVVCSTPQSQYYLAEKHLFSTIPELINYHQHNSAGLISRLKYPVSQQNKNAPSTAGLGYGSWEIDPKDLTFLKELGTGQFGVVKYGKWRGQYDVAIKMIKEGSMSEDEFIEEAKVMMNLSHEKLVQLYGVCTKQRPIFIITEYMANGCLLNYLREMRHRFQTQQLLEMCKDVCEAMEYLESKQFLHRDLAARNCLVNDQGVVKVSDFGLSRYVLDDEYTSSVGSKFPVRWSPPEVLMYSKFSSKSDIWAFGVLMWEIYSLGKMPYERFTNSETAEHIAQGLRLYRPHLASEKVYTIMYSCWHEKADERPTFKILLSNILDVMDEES

EEF2K = system: EEF2K; design: method as in Gao et al. [42]; details: ref Gao et al. [42], cited from earlier work
CDK5/p25 = system: CDK5/p25; design: method as in Gao et al. [42]; details: ref Gao et al. [42], cited from earlier work
NEK2 = system: NEK2; design: method as in Gao et al. [42]; details: ref Gao et al. [42], cited from earlier work
CAMK2B = system: CAMK2B; design: method as in Gao et al. [42]; details: ref Gao et al. [42], cited from earlier work
BRSK1 = system: BRSK1; design: method as in Gao et al. [42]; details: ref Gao et al. [42], cited from earlier work
CDK1 = system: CDK1; design: method as in Gao et al. [42]; details: ref Gao et al. [42], cited from earlier work
CAMK1 = system: CAMK1; design: method as in Gao et al. [42]; details: ref Gao et al. [42], cited from earlier work
CSNK1G1 = system: CSNK1G1; design: method as in Gao et al. [42]; details: ref Gao et al. [42], cited from earlier work
MAPKAPK3 = system: MAPKAPK3; design: method as in Gao et al. [42]; details: ref Gao et al. [42], cited from earlier work

T1 sequence (P23443 whole entry): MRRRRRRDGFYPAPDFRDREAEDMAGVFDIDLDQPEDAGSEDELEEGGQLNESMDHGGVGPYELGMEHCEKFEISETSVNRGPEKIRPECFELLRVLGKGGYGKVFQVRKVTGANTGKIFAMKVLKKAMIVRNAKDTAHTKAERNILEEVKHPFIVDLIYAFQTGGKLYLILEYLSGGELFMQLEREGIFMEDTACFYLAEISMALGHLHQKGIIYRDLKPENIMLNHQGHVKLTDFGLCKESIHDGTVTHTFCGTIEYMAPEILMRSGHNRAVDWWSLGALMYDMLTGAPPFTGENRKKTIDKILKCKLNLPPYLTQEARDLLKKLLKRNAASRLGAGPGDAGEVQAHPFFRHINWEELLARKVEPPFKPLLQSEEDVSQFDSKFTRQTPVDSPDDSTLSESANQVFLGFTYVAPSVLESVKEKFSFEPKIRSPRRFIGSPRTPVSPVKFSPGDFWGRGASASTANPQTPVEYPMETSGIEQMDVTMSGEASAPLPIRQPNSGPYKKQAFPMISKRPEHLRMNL

## COc1cc2nccc(Oc3ccc(NC(=O)Nc4cc(C)on4)c(Cl)c3)c2cc1OC [TIVOZANIB, Tivozanib]
RPS6KB1
  IC50: > 12.5 µM
FMS; 1 µM
  Gao et al. % of activity remaining at 1 µM: 0%
FMS; 10 µM
  Gao et al. % of activity remaining at 10 µM: 0%
LCK; 1 µM
  Gao et al. % of activity remaining at 1 µM: -2%
LCK; 10 µM
  Gao et al. % of activity remaining at 10 µM: 1%
AXL; 1 µM
  Gao et al. % of activity remaining at 1 µM: 12%
AXL; 10 µM
  Gao et al. % of activity remaining at 10 µM: 10%
Aurora B; 1 µM
  Gao et al. % of activity remaining at 1 µM: 3%
Aurora B; 10 µM
  Gao et al. % of activity remaining at 10 µM: 1%
SYK
  Gao et al. % of activity remaining at 10 µM: 73%
MKNK2 (MNK2); 1 µM
  Gao et al. % of activity remaining at 1 µM: 105%
MKNK2 (MNK2); 10 µM
  Gao et al. % of activity remaining at 10 µM: 64%
ITK
  Gao et al. % of activity remaining at 10 µM: 51%
ROS1; 1 µM
  Gao et al. % of activity remaining at 1 µM: 24%
ROS1; 10 µM
  Gao et al. % of activity remaining at 10 µM: 16%
FES; 1 µM
  Gao et al. % of activity remaining at 1 µM: 78%
FES; 10 µM
  Gao et al. % of activity remaining at 10 µM: 46%
MINK1; 1 µM
  Gao et al. % of activity remaining at 1 µM: 71%
MINK1; 10 µM
  Gao et al. % of activity remaining at 10 µM: 21%
PKN2; 1 µM
  Gao et al. % of activity remaining at 1 µM: 97%
PKN2; 10 µM
  Gao et al. % of activity remaining at 10 µM: 108%
JAK2; 1 µM
  Gao et al. % of activity remaining at 1 µM: 114%
JAK2; 10 µM
  Gao et al. % of activity remaining at 10 µM: 114%
RSK2; 1 µM
  Gao et al. % of activity remaining at 1 µM: 60%
RSK2; 10 µM
  Gao et al. % of activity remaining at 10 µM: 35%
CAMK2D; 1 µM
  Gao et al. % of activity remaining at 1 µM: 102%
CAMK2D; 10 µM
  Gao et al. % of activity remaining at 10 µM: 90%
BTK; 1 µM
  Gao et al. % of activity remaining at 1 µM: 50%
BTK; 10 µM
  Gao et al. % of activity remaining at 10 µM: 10%
EEF2K; 1 µM
  Gao et al. % of activity remaining at 1 µM: 84%
EEF2K; 10 µM
  Gao et al. % of activity remaining at 10 µM: 116%
CDK5/p25; 1 µM
  Gao et al. % of activity remaining at 1 µM: 90%
CDK5/p25; 10 µM
  Gao et al. % of activity remaining at 10 µM: 95%
NEK2; 1 µM
  Gao et al. % of activity remaining at 1 µM: 88%
NEK2; 10 µM
  Gao et al. % of activity remaining at 10 µM: 100%
CAMK2B; 1 µM
  Gao et al. % of activity remaining at 1 µM: 97%
CAMK2B; 10 µM
  Gao et al. % of activity remaining at 10 µM: 69%
BRSK1; 1 µM
  Gao et al. % of activity remaining at 1 µM: 65%
BRSK1; 10 µM
  Gao et al. % of activity remaining at 10 µM: 46%
CDK1; 1 µM
  Gao et al. % of activity remaining at 1 µM: 100%
CDK1; 10 µM
  Gao et al. % of activity remaining at 10 µM: 94%
CAMK1; 1 µM
  Gao et al. % of activity remaining at 1 µM: 105%
CAMK1; 10 µM
  Gao et al. % of activity remaining at 10 µM: 41%
CSNK1G1; 1 µM
  Gao et al. % of activity remaining at 1 µM: 89%
CSNK1G1; 10 µM
  Gao et al. % of activity remaining at 10 µM: 57%
MAPKAPK3; 1 µM
  Gao et al. % of activity remaining at 1 µM: 116%
MAPKAPK3; 10 µM
  Gao et al. % of activity remaining at 10 µM: 67%
